Results: patent publication US10988478B1, “Pyrazolo[1,5a]pyrimidine derivatives as IRAK4 modulators” (Genentech, Inc., priority 2015, dated 2021)
pKi: −log10 of the molar value.

Target: human IRAK4 (Homo sapiens (Human), UniProt Q9NWZ3)
Assay: IRAK4 kinase inhibition, Transcreener fluorescence polarization ADP assay
Format: biochemical
Details: recombinant full-length His6-IRAK4; 125 uM ATP; 90 min; Ki computed using ATP Km 642 uM
Experimental: Compounds were assayed for inhibition of human IRAK4 and IRAK1 catalytic activity using recombinant enzyme produced from insect cells. Full-length IRAK4 protein, carrying an N-terminal His6-Tag, was obtained from Life Technologies (Carlsbad, Calif., USA). The IRAK1 construct was produced internally and was comprised of IRAK1 residues Arg194 to Ser712, preceded by an NH2-terminal His6 tag and the coding sequence for glutathione-S-transferase.

Sequence of human IRAK4 (Q9NWZ3 whole entry): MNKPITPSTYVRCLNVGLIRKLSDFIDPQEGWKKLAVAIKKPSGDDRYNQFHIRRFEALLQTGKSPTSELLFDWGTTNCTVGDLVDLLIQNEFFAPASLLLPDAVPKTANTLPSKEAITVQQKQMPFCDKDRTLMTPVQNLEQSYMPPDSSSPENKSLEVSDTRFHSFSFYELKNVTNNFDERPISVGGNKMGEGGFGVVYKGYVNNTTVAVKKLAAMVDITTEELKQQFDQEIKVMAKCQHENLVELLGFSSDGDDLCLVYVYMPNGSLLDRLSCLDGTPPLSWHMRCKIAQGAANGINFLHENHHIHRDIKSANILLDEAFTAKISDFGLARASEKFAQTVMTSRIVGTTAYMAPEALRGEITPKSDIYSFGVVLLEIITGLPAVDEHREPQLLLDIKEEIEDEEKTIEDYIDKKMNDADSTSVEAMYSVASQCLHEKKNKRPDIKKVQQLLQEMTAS

pKi	Compound
6.82	CNC[C@H]1OC[C@H](c2cc3c(cc2NC(=O)c2cnn4cccnc24)CC(C)(C)O3)CO1 [Example 3, Trans-N-[2,2-dimethyl-6-[2-(methylaminomethyl)-1,3-dioxan-5-yl]-3H-benzofuran-5-yl]pyrazolo[1,5-a]pyrimidine-3-carboxamide]
7.64	CC1(C)Cc2cc(NC(=O)c3cnn4cccnc34)c(OCc3cccnc3)cc2O1 [Example 297, N-(2,2-Dimethyl-6-(pyridin-3-ylmethoxy)-2,3-dihydrobenzofuran-5-yl)pyrazolo[1,5-α]pyrimidine-3-carboxamide]
7.60	CC1(C)Cc2cc(NC(=O)c3cnn4cccnc34)c(N3CC[C@@](C)(CO)C3)cc2O1 [Example 95, (R)—N-(6-(3-(hydroxymethyl)-3-methylpyrrolidin-1-yl)-2,2-dimethyl-2,3-dihydrobenzofuran-5-yl)pyrazolo[1,5-a]pyrimidine-3-carboxamide]
6.96	C[C@]1(O)COc2cc(N3CCC([C@@](C)(O)C(F)(F)F)CC3)c(NC(=O)c3cnn4cccnc34)cc2C1 (single isomer, unassigned) [Example 422]
8.04	CC(C)(O)[C@]1(C)Cc2cc(NC(=O)c3cnn4cccnc34)c(N3CCN(CC(F)F)CC3)cc2O1 [Example 361, (S)—N-(6-(4-(2,2-Difluoroethyl)piperazin-1-yl)-2-(2-hydroxypropan-2-yl)-2-methyl-2,3-dihydrobenzofuran-5-yl)pyrazolo[1,5-a]pyrimidine-3-carboxamide]
8.40	O=C(Nc1cc2c(cc1N1CCOCC1)C(=O)N(C1CCOCC1)C2)c1cnn2cccnc12 [Example 255, N-(6-Morpholino-1-oxo-2-tetrahydropyran-4-yl-isoindolin-5-yl)pyrazolo[1,5-a]pyrimidine-3-carboxamide]
7.77	N-[(2S)-6-[4-(2,2-difluoroethyl)piperazin-1-yl]-2-(hydroxymethyl)-2-methyl-3H-benzofuran-5-yl]-6-fluoro-pyrazolo[1,5-a]pyrimidine-3-carboxamide [Example 495]
8.09	O=C(Nc1cc2c(cc1N1CCOCC1)C(=O)N(C[C@@H]1CCC[C@H]1O)C2)c1cnn2cccnc12 (stereo in doubt) [Example 549, N-[2-[[(1S,2R)-2-hydroxycyclopentyl]methyl]-6-morpholino-1-oxo-isoindolin-5-yl]pyrazolo[1,5-a]pyrimidine-3-carboxamide]
7.54	C[C@@H]1CN(C)CC[C@]12Cc1cc(NC(=O)c3cnn4cccnc34)c(N3CCOCC3)cc1O2 [Example 498, N-((2R,3′R)-1′,3′-dimethyl-6-morpholino-3H-spiro[benzofuran-2,4′-piperidin]-5-yl)pyrazolo[1,5-a]pyrimidine-3-carboxamide]
7.96	O=C(Nc1cc2c(cc1N1CCOCC1)OC1(CCOCC1)C2)c1cnn2cccnc12 [Example 39, N-(6-Morpholino-2′,3′,5′,6′-tetrahydro-3H-spiro[benzofuran-2,4′-pyran]-5-yl)pyrazolo[1,5-a]pyrimidine-3-carboxamide]
8.57	Cc1cnc2c(C(=O)Nc3cc4c(cc3N3CCC(F)(CO)CC3)OC(C)(CO)C4)cnn2c1 (stereo not drawn) [Example 328, N-(6-(4-Fluoro-4-(hydroxymethyl)-piperidin-1-yl)-2-(hydroxymethyl)-2-methyl-2,3-dihydrobenzofuran-5-yl)-6-methylpyrazolo[1,5-α]pyrimidine-3-carboxamide]
8.51	CC1(CC(N)=O)CCN(c2cc3c(cc2NC(=O)c2cnn4cccnc24)CC(C)(C)O3)CC1 [Example 535, N-[6-[4-(2-Amino-2-oxo-ethyl)-4-methyl-1-piperidyl]-2,2-dimethyl-3H-benzofuran-5-yl]pyrazolo[1,5-a]pyrimidine-3-carboxamide]
7.68	CC1(CO)CCN(c2cc3c(cc2NC(=O)c2cnn4cccnc24)CC(C)(C)O3)C1 (stereo not shown) [Example 18, N-(6-(3-(Hydroxymethyl)-3-methylpyrrolidin-1-yl)-2,2-dimethyl-2,3-dihydrobenzofuran-5-yl)pyrazolo[1,5-a]pyrimidine-3-carboxamide]
